From patent US10875891B2, “Short synthetic peptide and uses thereof” (MacKay Memorial Hospital, priority 2018, dated 2020) come the findings set out here.

Test [1] deals with myeloma RPMI 8226 cell. Put plainly: MTT assay, cell viability. Particulars: 20 μM peptide, 24 h, serum-free RPMI1640; FIGS. 1-2. It is filed as cell-based, human. On the procedure: The multiple myeloma line RPMI8226 or […] Raw264.7 macrophages were cultivated in complex medium (RPMI1640) supplemented with 10% (vol/vol) heat-inactivated fetal calf serum (Invitrogen), 50 μg/mL penicillin, 50 μg/mL streptomycin, and 2 mM L-glutamine at 37° C. in a 5% CO2 atmosphere
RPMI8226 cells or U266 cells were cultured in serum-free RPMI1640 medium for 24 h, and then cells seeded in 48-well culture plates (3×10^5 cells/well) and cultured in 0.5 ml fresh serum-free RPMI1640 medium containing 20 μM peptide for further 24 h. The cell viability was determined by the MTT assay.
50 μL of the MTT stock solution (5 mg MTT dissolved in 1 ml of sterile PBS) was added to each well, and 50 μL of the MTT stock solution was added to 500 μL of medium alone and used as a negative control. Each sample was Incubates at 37° C. for 4 hours. Aliquots (450 μl) from each sample were taken to a new well of 48-well culture plate, adding 100 μL DMSO, mixing thoroughly using the pipette and reacted at 37° C. for 20 min and absorbance was measured at 570 nm.
On the technique in general: Formazan colour is commonly taken as a measure of viable cells.

For test [2], the system named is Murine dry eye model. Put plainly: Dry eye animal model, fluorescein eye stain test for corneal injuries. The note with it: peptide 50 μM topically three times a day for 4 days; for reduction in mean corneal fluorescein staining score compared with vehicle treated control mice: FIG. 3 panel B. The format is in vivo, C57BL/6 mice. On the procedure:
(§1) C57BL/6 mice (7-8 weeks old, each weighted about 18 to 25 g) were used in this model system. All mice were maintained in the animal facility in accordance with the procedures approved by Mackay Memorial Hospital Review Board (Taiwan, R.O. C.). All animal experimental procedures were conducted according to the ARVO Statement for the Use of Animals in Ophthalmic and Vision Research.
(§2) Dry eyes were induced by placing mice in a controlled environment chamber (CEC) for 14 days in accordance with procedures previously described by Barabino et al (IVOS (2005) 46(8), 2766-2771). Mice placed in the CEC were exposed to a condition, in which relative humidity (RH) was maintained at <25%, temperature at 20-22° C., and airflow at about 15 L/min, for 12 hours per day. Control mice were kept in a normal environment (RH>50%, no air flow, temperature of 20-22° C.) for the same duration.
(§3) A common artificial tear formulation, 1% carboxymethylcelllulose (CMC) dissolved in balanced salt solution (BSS) was used as the peptide vehicle. Peptide (50 μM) or 1% CMC vehicle was topically administered to eyes three times a day, for 4 days.
Corneal epithelial injury was determined by staining with topical fluorescein (100 mg/ml or 10%; FLUORESCITE™, Alcon Laboratories). For dosing, topical fluorescein (0.6 μL of 0.5% sodium fluorescein dissolved in 4.4 μL BSS per eye) was applied via a micro-pipette to the lateral canthus for 15 sec. Corneal fluorescein staining was examined with a slit-lamp biomicroscope under cobalt blue light and photographed with a digital camera. Data is presented as mean±SD. Dye staining of the cornea was scored in a blinded manner as follows: score 0 for no punctuate staining; score 1 when less than one third of the cornea was stained; score 2 when two thirds or less was stained; and score 3 when more than two thirds was stained.

Test [3] has as its system Murine dry eye model. Put plainly: Dry eye animal model, tear production by phenol red thread test. Particulars: treated for 4 days; P<0.01 versus vehicle treatment; FIG. 4. It is filed as in vivo, C57BL/6 mice. The method, then: as §1, §2, §3
Tear production was measured with phenol red-impregnated cotton threads (Zone-Quick; Oasis, Glendora, Calif.). The validity of this test in mice was performed as previously described (Dursun et al., Invest Ophthalmol Vis Sci. 2002; 43:632-8). The threads were held with jeweler forceps and placed in the lateral canthus for 60 seconds. The tear production expressed in millimeters of thread wet by the tear and turned red.

The subject of test [4] is Murine psoriasis vulgaris-like skin inflammation model. Put plainly: IMQ-induced psoriasis vulgaris-like skin inflammation model, H&E histology of back skin. The format is in vivo, BALB/c mice. Particulars: 25 μM with IMQ cream, 6 days; IMQ control 122±10.5; FIG. 8 panel B. On the procedure:
(§4) BALB/c mice (8-weeks old females; n=42) were used in this model system. […] Accordingly, in this model, each BALB/c mice received a daily topical dose (62.5 mg) of commercially available IMQ cream (Imiquimod Cream 5% w/w, Aldara™) on the shaved back and the right ear for 6 consecutive days (n=6); whereas the control mice (normal group) were treated with a control cream (n=6). For treatment, each test peptide was mixed with IMQ cream to give a concentration of 25 μM (n=6 per group). Keratinocyte proliferation was determined by BrdU incorporation. BrdU (Sigma-Aldrich) was reconstituted in DMSO as a stock solution of 80 mM. 10 μl of BrdU mixed with 90 μl of PBS was intraperitoneally injected into each mouse for 24 hr prior to euthanasia.
Back skin of the mouse was fixed overnight in 4% paraformaldehyde, dehydrated with graded ethanol series, and paraffinized. Fixed samples were deparaffinized in xylene and rehydrated in a graded series of ethanol. Tissues were sliced into 5-μm sections. General histology was performed using hematoxylin and eosin (H&E) (Merck, Rayway, N.J., USA).
(§5) Slides were blocked with 10% goat serum for 60 min and then incubated with primary antibody against BrdU (1:50 dilution; GTX42641) for 3 hr at RT. The slides were then incubated with peroxidase-labeled donkey immunoglobulin for 30 min and then incubated with chromogen substrate (3,3′-diaminobenzidine) for 2 min before counterstaining with hematoxylin. Quantification was estimated based on high quality images (1208×960 pixels buffer) captured using a Nikon Eclipse 80i light microscope.

For test [5] the test system is unchanged. Put plainly: IMQ-induced psoriasis vulgaris-like skin inflammation model, keratinocyte proliferation by BrdU incorporation. Particulars: 25 μM with IMQ cream, day 6; IMQ control 24.5±2.0; FIG. 9 panel B. The format is in vivo, BALB/c mice. On the procedure: as §4, §5

Where no end group is shown, it is not given here. [ ]: non-standard residue; d: D form.

For the substance “NH2-Asp-Ile-Thr-Tyr-Val-Arg-Leu-Ala-Phe-COOH (DITYVRLAF; not fully specified (N-terminus, C-terminus); printed as NH2-Asp-Ile-Thr-Tyr-Val-Arg-Leu-Ala-Phe-COOH) [9-mer Ka, 9-mer analogue, lysine replaced by alanine]”, the “myeloma RPMI 8226 cell viability (MTT assay)” value in test [1] is recorded as “loss of the inhibitory activity”. Take “NH2-Asp-Ile-Thr-Tyr-Val-Arg-Ala-Lys-Phe-COOH (DITYVRAKF; not fully specified (N-terminus, C-terminus); printed as NH2-Asp-Ile-Thr-Tyr-Val-Arg-Ala-Lys-Phe-COOH) [9-mer La, 9-mer analogue, leucine replaced by alanine]”: the “myeloma RPMI 8226 cell viability (MTT assay)” value in test [1] is listed as “loss of the inhibitory activity”.

In the case of “NH2-Asp-Ile-Thr-Tyr-Val-Arg-Leu-Lys-(D-Phe)-COOH (DITYVRLK[dF]; not fully specified (N-terminus, C-terminus); printed as NH2-Asp-Ile-Thr-Tyr-Val-Arg-Leu-Lys-(D-Phe)-COOH) [9-mer DF, 9-mer analogue, phenylalanine in D-form]”, in test [2], the “reduction in mean corneal fluorescein staining score compared with vehicle treated control mice” value (from here on “reduction”) is recorded as “about 3 fold”. The “tear volume (tear production)” value in test [3] is on record as “significantly increased”. Besides, the “acanthosis, quantified epidermal thickness” value in test [4] is 35.7±4.2 μm. The “hyperproliferation of keratinocytes, BrdU-positive cells in the epidermis (labeling index)” value in test [5] came out at 6.3±1.2%.

In the case of “NH2-Asp-Ala-Thr-Tyr-Val-Arg-Leu-Lys-Phe-COOH (DATYVRLKF; not fully specified (N-terminus, C-terminus); printed as NH2-Asp-Ala-Thr-Tyr-Val-Arg-Leu-Lys-Phe-COOH) [9-mer Ia, 9-mer analogue, isoleucine replaced by alanine]”, the “myeloma RPMI 8226 cell viability (MTT assay)” value in test [1] was “loss of the inhibitory activity”. Take “NH2-Ala-Ile-Thr-Tyr-Val-Arg-Leu-Lys-Phe-COOH (AITYVRLKF; not fully specified (N-terminus, C-terminus); printed as NH2-Ala-Ile-Thr-Tyr-Val-Arg-Leu-Lys-Phe-COOH) [9-mer Da, 9-mer analogue, aspartate replaced by alanine]”: the “myeloma RPMI 8226 cell viability (MTT assay)” value in test [1] is given as “sustain part of the inhibitory activity”. For the same substance, the “reduction” value in test [2] was “about 3 fold”. For the same substance, the “tear volume (tear production)” value in test [3] is given as “significantly increased”. Take “NH2-Asp-Ile-Thr-Tyr-Val-Ala-Leu-Lys-Phe-COOH (DITYVALKF; not fully specified (N-terminus, C-terminus); printed as NH2-Asp-Ile-Thr-Tyr-Val-Ala-Leu-Lys-Phe-COOH) [9-mer Ra, 9-mer analogue, arginine replaced by alanine]”: in test [1], the “myeloma RPMI 8226 cell viability (MTT assay)” value is “loss of the inhibitory activity”. Consider “NH2-Asp-Ile-Thr-Tyr-Ala-Arg-Leu-Lys-Phe-COOH (DITYARLKF; not fully specified (N-terminus, C-terminus); printed as NH2-Asp-Ile-Thr-Tyr-Ala-Arg-Leu-Lys-Phe-COOH) [9-mer Va, 9-mer analogue, valine replaced by alanine]”, for which the “myeloma RPMI 8226 cell viability (MTT assay)” value in test [1] was “sustain part of the inhibitory activity”. Further, the “reduction” value in test [2] is “about 3 fold”. In test [3], the “tear volume (tear production)” value is “significantly increased”. For “NH2-Asp-Ile-Thr-Tyr-Val-Arg-Leu-Lys-Ala-COOH (DITYVRLKA; not fully specified (N-terminus, C-terminus); printed as NH2-Asp-Ile-Thr-Tyr-Val-Arg-Leu-Lys-Ala-COOH) [9-mer Fa, 9-mer analogue, phenylalanine replaced by alanine]”, the “myeloma RPMI 8226 cell viability (MTT assay)” value in test [1] was “sustain part of the inhibitory activity”. In addition, the “reduction” value in test [2] is “about 3 fold”. Further, the “tear volume (tear production)” value in test [3] is “significantly increased”. As for “NH2-Asp-Ile-Thr-Ala-Val-Arg-Leu-Lys-Phe-COOH (DITAVRLKF; not fully specified (N-terminus, C-terminus); printed as NH2-Asp-Ile-Thr-Ala-Val-Arg-Leu-Lys-Phe-COOH) [9-mer Ya, 9-mer analogue, tyrosine replaced by alanine]”, the “myeloma RPMI 8226 cell viability (MTT assay)” value in test [1] is given as “loss of the inhibitory activity”. As for “NH2-(D-Asp)-Ile-Thr-Tyr-Val-Arg-Leu-Lys-Phe-COOH ([dD]ITYVRLKF; not fully specified (N-terminus, C-terminus); printed as NH2-(D-Asp)-Ile-Thr-Tyr-Val-Arg-Leu-Lys-Phe-COOH) [9-mer DD, 9-mer analogue, aspartate replaced by D-form aspartate]”, the “hyperproliferation of keratinocytes, BrdU-positive cells in the epidermis (labeling index)” value in test [5] is recorded as 23.3±2.5%. Regarding “NH2-Asp-Ile-Ala-Tyr-Val-Arg-Leu-Lys-Phe-COOH (DIAYVRLKF; not fully specified (N-terminus, C-terminus); printed as NH2-Asp-Ile-Ala-Tyr-Val-Arg-Leu-Lys-Phe-COOH) [9-mer Ta, 9-mer analogue, threonine replaced by alanine]”, the “myeloma RPMI 8226 cell viability (MTT assay)” value in test [1] is recorded as “loss of the inhibitory activity”.

For “NH2-Ile-Thr-Tyr-Val-Arg-Leu-Lys-Ala-COOH (ITYVRLKA; not fully specified (N-terminus, C-terminus); printed as NH2-Ile-Thr-Tyr-Val-Arg-Leu-Lys-Ala-COOH) [8-mer, control 8-mer peptide, aspartate residue of the 9-mer deleted]”, the “corneal fluorescein stain (corneal damage), result in words” value in test [2] (vs vehicle) is given as “no such effect”.
